Measurements taken from ChEMBL document CHEMBL1201862, “PubChem BioAssay data set” (2004).
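Cells were grown in 96-well plates and exposed to each compound for 48 hours at five concentrations; endpoints were interpolated linearly between bracketing concentrations, or set to the highest concentration if not reached. GI50 is the concentration that inhibits growth by half.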 The source made the active and inactive calls. Cut-off read from the data, not from the text of the source: active = GI50 up to about 1.1 µM and inactive = higher. Where a SMILES comes first, the peptide text is derived from it. [ ]: non-standard residue; d: D form. The star is where a group is joined. ξ: configuration not given here. X38 = O=C(OCc1ccccc1)[C@@H]1CCC[C@H]1N*; Fmoc = O=C(OCC1c2ccccc2-c2ccccc21)*; ξW = NC(Cc1c[nH]c2ccccc12)C(=O)O; ξF = NC(Cc1ccccc1)C(=O)O; Boc = CC(C)(C)OC(=O)*; ξK = NCCCCC(N)C(=O)O; ξT = CC(O)C(N)C(=O)O; tBu = CC(C)(C)*; CH2Cl = ClC*

Legend:
Assay in all cases: NCI-60 cell line screen, 48 h
RPMI-8226 = test system: RPMI-8226
HOP-92 = test system: HOP-92
U-251 = test system: U-251
CAKI-1 = test system: CAKI-1
SN12C = test system: SN12C
IGROV-1 = test system: IGROV-1
MDA-MB-435 = test system: MDA-MB-435
UACC-62 = test system: UACC-62
A549 = test system: A549
CCRF-CEM = test system: CCRF-CEM
SR = test system: SR
SF-268 = test system: SF-268
Hs-578T = test system: Hs-578T
EKVX = test system: EKVX
RXF 393 = test system: RXF 393
SF-539 = test system: SF-539
T47D = test system: T47D
KM12 = test system: KM12
PC-3 = test system: PC-3
SK-OV-3 = test system: SK-OV-3

| SMILES | GI50 (RPMI-8226) | GI50 (HOP-92) | GI50 (U-251) | GI50 (CAKI-1) | GI50 (SN12C) | GI50 (IGROV-1) | GI50 (MDA-MB-435) | GI50 (UACC-62) | GI50 (A549) | GI50 (CCRF-CEM) | GI50 (SR) | GI50 (SF-268) | GI50 (Hs-578T) | GI50 (EKVX) | GI50 (RXF 393) | GI50 (SF-539) | GI50 (T47D) | GI50 (KM12) | GI50 (PC-3) | GI50 (SK-OV-3) |
| --- | --- | --- | --- | --- | --- | --- | --- | --- | --- | --- | --- | --- | --- | --- | --- | --- | --- | --- | --- | --- |
| Cn1c2ccccc2c2ccc3c(c21)C(=O)c1ccccc1C3=O | 12.2 µM (inactive) | 18.9 µM (inactive) | 16.4 µM (inactive) | 22.2 µM (inactive) | 20.6 µM (inactive) | 13.8 µM (inactive) | 16 µM (inactive) | 16.7 µM (inactive) | 24.7 µM (inactive) | 3.02 µM (inactive) | 3.29 µM (inactive) | 18.7 µM (inactive) | 14.1 µM (inactive) | 12.5 µM (inactive) | 15.8 µM (inactive) | 17.3 µM (inactive) | 11.7 µM (inactive) | 27.8 µM (inactive) | 13 µM (inactive) | 15.8 µM (inactive) |
| COc1cc(C2c3cc4c(cc3OC(NN)C2C)OCO4)cc(OC)c1OC (stereo not given) | 0.289 µM (active) | 2.04 µM (inactive) | 0.403 µM (active) | 3.36 µM (inactive) | 0.757 µM (active) | 1.46 µM (inactive) | 0.157 µM (active) | 0.495 µM (active) | 1.58 µM (inactive) | 0.405 µM (active) | 0.287 µM (active) | 2.5 µM (inactive) | 0.234 µM (active) | 10.2 µM (inactive) | 0.593 µM (active) | 0.247 µM (active) | 87.3 µM (inactive) | 0.466 µM (active) | 0.556 µM (active) | 1.38 µM (inactive) |
| CSC(=S)Nc1cc(C)cc(C)n1 | > 31.6 µM (inactive) | > 31.6 µM (inactive) | > 31.6 µM (inactive) | > 31.6 µM (inactive) | > 31.6 µM (inactive) | > 100 µM (inactive) | > 31.6 µM (inactive) | > 31.6 µM (inactive) | > 31.6 µM (inactive) | > 31.6 µM (inactive) | > 10 µM (inactive) | > 31.6 µM (inactive) | > 31.6 µM (inactive) | > 31.6 µM (inactive) | > 31.6 µM (inactive) | > 100 µM (inactive) | > 31.6 µM (inactive) | > 31.6 µM (inactive) | > 31.6 µM (inactive) | > 31.6 µM (inactive) |
| CCOC(=O)c1ccc2nc(NC(=O)COC(=O)CSc3nc(C)cc(C)n3)sc2c1 | 53 µM (inactive) | 24.8 µM (inactive) | 48.6 µM (inactive) | 26.3 µM (inactive) | 39 µM (inactive) | 27 µM (inactive) | > 100 µM (inactive) | 25.8 µM (inactive) | 42.9 µM (inactive) | 1.52 µM (inactive) | 52.7 µM (inactive) | 67.8 µM (inactive) | 36 µM (inactive) | 18.5 µM (inactive) | 30.3 µM (inactive) | 26.1 µM (inactive) | 16.7 µM (inactive) | > 100 µM (inactive) | 40.2 µM (inactive) | 32.5 µM (inactive) |
| COc1ccc(C2=NNC(=O)c3ccccc3N2c2nc(-c3cccs3)nc3ccc(Br)cc23)cc1 | 52.2 µM (inactive) | > 100 µM (inactive) | 28.8 µM (inactive) | 76.2 µM (inactive) | 56 µM (inactive) | 63.5 µM (inactive) | > 100 µM (inactive) | 64.1 µM (inactive) | 60.7 µM (inactive) | 5.25 µM (inactive) | 42 µM (inactive) | 31 µM (inactive) | 35.1 µM (inactive) | 24.6 µM (inactive) | 68.4 µM (inactive) | 16.7 µM (inactive) | 23.7 µM (inactive) | 61.5 µM (inactive) | 24.7 µM (inactive) | 53.7 µM (inactive) |
| CC(=O)NC(CC(C)C)C(=O)NC(Cc1ccccc1)C(=O)CCl (stereo not drawn) (Ac-Leu-Phe-CH2Cl; configuration not given here) | 2.69 µM (inactive) | 5.78 µM (inactive) | 16.6 µM (inactive) | 17.4 µM (inactive) | 13.4 µM (inactive) | 16.1 µM (inactive) | 12.3 µM (inactive) | 11.7 µM (inactive) | 20.7 µM (inactive) | 1.32 µM (inactive) | 2.55 µM (inactive) | 17.9 µM (inactive) | 17.3 µM (inactive) | 21.1 µM (inactive) | 1.96 µM (inactive) | 18.1 µM (inactive) | 7.82 µM (inactive) | 18.7 µM (inactive) | 14 µM (inactive) | 18.1 µM (inactive) |
| CC(OC(C)(C)C)C(NC(=O)C(CCCCNC(=O)OC(C)(C)C)NC(=O)C(Cc1c[nH]c2ccccc12)NC(=O)C(Cc1ccccc1)NC(=O)OCC1c2ccccc2-c2ccccc21)C(=O)NC(Cc1ccccc1)C(=O)N[C@@H]1CCC[C@H]1C(=O)OCc1ccccc1 (stereo not given in full) (Fmoc-[ξF][ξW][ξK](Boc)[ξT](tBu)[ξF]-X38) | > 100 µM (inactive) | > 100 µM (inactive) | > 100 µM (inactive) | 62.2 µM (inactive) | > 100 µM (inactive) | > 100 µM (inactive) | > 100 µM (inactive) | > 100 µM (inactive) | > 100 µM (inactive) | > 100 µM (inactive) | > 100 µM (inactive) | > 100 µM (inactive) | 31 µM (inactive) | > 100 µM (inactive) | > 100 µM (inactive) | > 100 µM (inactive) | > 100 µM (inactive) | > 100 µM (inactive) | > 100 µM (inactive) | > 100 µM (inactive) |
